Data set [1] concerns HBV (HepG2.117 cell line, inducibly HBV producing). In words: Anti-HBV activity, intracellular HBV DNA by real-time PCR in HepG2.117 cell line. Type of data set: cell-based, hepatitis B virus. To be noted: HepG2.117 cells, 3 days of treatment. The protocol:
The anti HBV activity was measured using the HepG2.117 cell line, a stable, inducibly HBV producing cell line, which replicates HBV in the absence of doxycycline (Tet-off system). The HepG2 cell line is available from ATCCR under number HB-8065. Transfection of the HepG2 cell line can be as described in Sun and Nassal 2006 Journal of Hepatology 45 (2006) 636-645 “Stable HepG2- and Huh7-based human hepatoma cell lines for efficient regulated expression of infectious hepatitis B virus”.
For the antiviral assay, HBV replication was induced, followed by a treatment with serially diluted compound in 96-well plates. After 3 days of treatment, the antiviral activity was determined by quantification of intracellular HBV DNA using real-time PCR and an HBV specific primer set and probe.
Background: In qPCR the cycle at which signal appears reflects the starting amount.

A short description of data set [2]: Cytotoxicity, ATPlite Luminescence Assay. Type of data set: cell-based, human. To be noted: human, HepG2 or HepG2.117 cells, 3-days incubation unless marked with *. On the procedure:
Cytotoxicity of the compounds was tested using HepG2 or HepG2.117 cells, incubated for 3 or 4 days in the presence of compounds. The viability of the cells was assessed using the PERKIN ELMER ATPlite Luminescence Assay System.”
For orientation: In ATP-based viability assays light output follows the ATP content of the culture.

Data set [3] can be described thus: Human liver microsome stability. Type of data set: in vitro ADME. The following applies: 1 μM compound, NADPH 1 mM, 37° C., 0-60 min; for HLM Metabolism t1/2: pooled human liver microsomes 0.5 mg/mL; for half-life at 1 μM: human, pooled human liver microsomes, pH 7.4, pooled human liver microsomes 0.5 mg/mL, read-out: HLM Metabolism t1/2. The protocol: Human Liver Microsome Stability t½ (Min) of Compounds of Formula (I) […] All incubations are performed singularly for each compound. NADPH was added to initiate the reaction with the final concentration of 1 mM and the final incubation volume of 400 μL. At 6 time points (0, 5, 10, 20, 40 and 60 min) reactions were stopped by the removal of 50 μL of the incubation mixture into plates containing acetonitrile at a of 1:3 (v:v). The plates were centrifuged at 3000 rpm for 10 min at 4° C. to precipitate the protein. Following protein precipitation, the sample supernatants were combined in cassettes of up to 8 compounds. The internal standard was added (1:1 supernatant to internal standard solution) and samples were analyzed using standard LC-MS conditions. From a plot of ln peak area ratio (compound peak area/internal standard peak area) against time, the gradient of the line is determined. Subsequently, half-life is calculated using the equations below: Elimination rate constant (k)=(−gradient) […]

The mark [4] stands for this setting: Hepatitis B virus, HepG2.117, 72 h.

The text below walks through data of patent US20240287070A1, “FUSED HETEROCYCLIC DERIVATIVES” (Janssen Sciences Ireland Unlimited Company, priority 2021, published 2024).

The term EC50 denotes the concentration giving half of the maximal effect. In general, CC50 refers to the concentration that lowers cell viability or growth by half.

In data set [1], `CC(c1cnc(NC2CC2)nc1)N1C[C@@H](C)n2nc3c(c2C1=O)CN(C(=O)c1ccc(Cl)c(Cl)c1)[C@H](C)C3` (single isomer, unassigned) [Compound 37A, (3R,7R)-9-((R*)-1-(2-(cyclopropylamino)pyrimidin-5-yl)ethyl)-2-(3,4-dichlorobenzoyl)-3,7-dimethyl-1,2,3,4,8,9-hexahydropyrido[4′,3′:3,4]pyrazolo[1,5-a]pyrazin-10(7H)-one] returned an EC50 of 0.15 µM. In addition, the 50% cytotoxic concentration (CC50) at 3 days in data set [2] was above 50 µM. Also, in data set [3], the “HLM Metabolism t1/2” value was above 3 h.

On to `CC(c1ccc(S(C)(=O)=O)cc1)N1C[C@@H](C)n2nc3c(c2C1=O)CN(C(=O)c1ccc(Cl)c(Cl)c1)[C@H](C)C3` (single isomer, unassigned) [Compound 15A, (3R,7R)-2-(3,4-dichlorobenzoyl)-3,7-dimethyl-9-((R*)-1-(4-(methylsulfonyl)phenyl)ethyl)-1,2,3,4,8,9-hexahydropyrido[4′,3′:3,4]pyrazolo[1,5-a]pyrazin-10(7H)-one], for which the midpoint of the response in data set [1], the EC50, lay at 0.063 µM. This compound came in with a half-maximal cytotoxic concentration (CC50) at 3 days in data set [2] above 50 µM. Also, the half-life at 1 μM in data set [3] was above 3 h.

Compound `C[C@@H]1Cc2nn3c(c2CN1C(=O)c1ccc(Cl)c(C(F)(F)F)c1)C(=O)N([C@H](C)c1ccc([S@@](C)(=N)=O)cc1)C[C@H]3C` (relative stereo) [Compound 19B, (3R,7R)-2-(4-chloro-3-(trifluoromethyl)benzoyl)-3,7-dimethyl-9-((R*)-1-(4-((S*)—S-methylsulfonimidoyl)phenyl)ethyl)-1,2,3,4,8,9-hexahydropyrido[4′,3′:3,4]pyrazolo[1,5-a]pyrazin-10(7H)-one] gave an EC50 in data set [1] (setting [4]) of 0.015 µM. The compound further registered a 50% cytotoxic concentration (CC50) at 3 days in data set [2] above 50 µM. The half-life at 1 μM in data set [3] is above 3 h.

On to `CC(c1ccc(C(C)(C)O)cc1)N1C[C@@H](C)n2nc3c(c2C1=O)CN(C(=O)c1ccc(Cl)c(Cl)c1)[C@H](C)C3` (single isomer, unassigned) [Compound 8A, (3R,7R)-2-(3,4-dichlorobenzoyl)-9-((R*)-1-(4-(2-hydroxypropan-2-yl)phenyl)ethyl)-3,7-dimethyl-1,2,3,4,8,9-hexahydropyrido[4′,3′:3,4]pyrazolo[1,5-a]pyrazin-10(7H)-one], for which the EC50 in data set [1] came to 0.024 µM. This compound returned a half-maximal cytotoxic concentration (CC50) at 3 days in data set [2] of 20.1 µM. The half-life at 1 μM in data set [3] was above 3 h.

In data set [1], `CC(c1cnc(C(C)(C)O)nc1)N1C[C@@H](C)n2nc3c(c2C1=O)CN(C(=O)c1ccc(Cl)c(Cl)c1)[C@H](C)C3` (single isomer, unassigned) [Compound 36A, (3R,7R)-2-(3,4-Dichlorobenzoyl)-9-((R*)-1-(2-(2-hydroxypropan-2-yl)pyrimidin-5-yl)ethyl)-3,7-dimethyl-1,2,3,4,8,9-hexahydropyrido[4′,3′:3,4]pyrazolo[1,5-a]pyrazin-10(7H)-one] yielded a half-maximal effective concentration (EC50) of 0.64 µM. This compound also displayed a CC50 at 3 days in data set [2] above 50 µM. Besides, in data set [3], the half-life at 1 μM was above 3 h.

Turning to `CC(c1cnn(C2CC2)c(=O)c1)N1C[C@@H](C)n2nc3c(c2C1=O)CN(C(=O)c1ccc(Cl)c(C(F)(F)F)c1)[C@H](C)C3` (single isomer, unassigned) [Compound 54A, (3R,7R)-2-(4-chloro-3-(trifluoromethyl)benzoyl)-9-((R*)-1-(1-cyclopropyl-6-oxo-1,6-dihydropyridazin-4-yl)ethyl)-3,7-dimethyl-1,2,3,4,8,9-hexahydropyrido[4′,3′: 3,4]pyrazolo[1,5-a]pyrazin-10(7H)-one], in data set [1], a half-maximal effect (EC50) was put at 0.16 µM. The CC50 at 3 days in data set [2] is above 50 µM. For the same compound, the half-life at 1 μM in data set [3] came to 1.29 h.

For the compound `CC(c1cnc(C(C)(C)O)nc1)N1C[C@@H](C)n2nc3c(c2C1=O)CN(C(=O)c1ccc(Cl)c(C(F)(F)F)c1)[C@H](C)C3` (single isomer, unassigned) [Compound 35A, (3R,7R)-2-(4-chloro-3-(trifluoromethyl)benzoyl)-9-((R*)-1-(2-(2-hydroxypropan-2-yl)pyrimidin-5-yl)ethyl)-3,7-dimethyl-1,2,3,4,8,9-hexahydropyrido[4′,3′:3,4]pyrazolo[1,5-a]pyrazin-10(7H)-one], the concentration giving a half-maximal response (EC50) in data set [1] was 0.2 µM. The compound also yielded a 50% cytotoxic concentration (CC50) at 3 days in data set [2] above 50 µM. The “HLM Metabolism t1/2” value in data set [3] stood at 0.783 h.

Consider `CC(c1ccc(N2CCCC2=O)cc1)N1C[C@@H](C)n2nc3c(c2C1=O)CN(C(=O)c1ccc(Cl)c(C#N)c1)[C@H](C)C3` (single isomer, unassigned) [Compound 9A, 2-Chloro-5-((3R,7R)-3,7-Dimethyl-10-oxo-9-((R*)-1-(4-(2-oxopyrrolidin-1-yl)phenyl)ethyl)-1,2,3,4,7,8,9,10-octahydropyrido[4′,3′:3,4]pyrazolo[1,5-a]pyrazine-2-carbonyl)benzonitrile], for which the EC50 in data set [1] (setting [4]) stood at 0.022 µM. The same compound gave a CC50 at 3 days in data set [2] above 50 µM. For the same compound, the “HLM Metabolism t1/2” value in data set [3] is 0.84 h.

In turn, `C[C@@H]1Cc2nn3c(c2CN1C(=O)c1ccc(Cl)c(C#N)c1)C(=O)N([C@H](C)c1ccc(OC(F)F)cc1)C[C@H]3C` (relative stereo) [Compound 1C, 2-Chloro-5-((3R,7R*)-9-((R*)-1-(4-(difluoromethoxy)phenyl)ethyl)-3,7-dimethyl-10-oxo-1,2,3,4,7,8,9,10-octahydropyrido[4′,3′:3,4]pyrazolo[1,5-a]pyrazine-2-carbonyl)benzonitrile] yielded an EC50 in data set [1] (setting [4]) of 0.044 µM. The same compound gave a CC50 at 3 days in data set [2] above 50 µM. The half-life at 1 μM in data set [3] is above 3 h.

On to `CNC(=O)C1(Oc2ccc(C(C)N3C[C@@H](C)n4nc5c(c4C3=O)CN(C(=O)c3ccc(Cl)c(C#N)c3)[C@H](C)C5)cc2)CC1` (single isomer, unassigned) [Compound 13A, 1-(4-((R*)-1-((3R,7R)-2-(4-chloro-3-cyanobenzoyl)-3,7-dimethyl-10-oxo-1,2,3,4,7,8-hexahydropyrido[4′,3′:3,4]pyrazolo[1,5-a]pyrazin-9(10H)-yl)ethyl)phenoxy)-N-methylcyclopropanecarboxamide], for which the concentration for a half-maximal effect (EC50) in data set [1] is 0.037 µM. Also, the CC50 at 3 days in data set [2] is above 50 µM. The half-life at 1 μM in data set [3] stood at 1.88 h.

In turn, `CC(c1ccccn1)N1CCn2nc3c(c2C1=O)CN(C(=O)c1ccc(Cl)c(Cl)c1)[C@H](C)C3` (mixture of isomers) [Ref 3, reference compound] had a CC50 at 3 days in data set [2] above 50 µM.

As for `CC(c1ccc(=O)n(C)n1)N1C[C@@H](C)n2nc3c(c2C1=O)CN(C(=O)c1ccc(Cl)c(Cl)c1)[C@H](C)C3` (single isomer, unassigned) [Compound 55A, (3R,7R)-2-(3,4-dichlorobenzoyl)-3,7-dimethyl-9-((R*)-1-(1-methyl-6-oxo-1,6-dihydropyridazin-3-yl)ethyl)-1,2,3,4,8,9-hexahydropyrido[4′,3′:3,4]pyrazolo[1,5-a]pyrazin-10(7H)-one], a half-maximal effect in data set [1] (setting [4]) (EC50) was put at 0.051 µM. Moreover, the CC50 at 3 days in data set [2] was above 50 µM. For the same compound, in data set [3], the half-life at 1 μM is above 3 h.

In data set [1], `CC(c1ccnc(Cl)c1)N1C[C@@H](C)n2nc3c(c2C1=O)CN(C(=O)c1ccc(Cl)c(Cl)c1)[C@H](C)C3` (single isomer, unassigned) [Compound 31A, (3R,7R)-9-((R*)-1-(2-chloropyridin-4-yl)ethyl)-2-(3,4-dichlorobenzoyl)-3,7-dimethyl-1,2,3,4,8,9-hexahydropyrido[4′,3′:3,4]pyrazolo[1,5-a]pyrazin-10(7H)-one] returned a 50% effective concentration (EC50) of 0.051 µM. This compound also came in with a CC50 at 3 days in data set [2] of 31.5 µM. Further, in data set [3], the half-life at 1 μM is 1.9 h.

`CC(C)Oc1cc(C(C)N2C[C@@H](C)n3nc4c(c3C2=O)CN(C(=O)c2ccc(Cl)c(C(F)(F)F)c2)[C@H](C)C4)ccn1` (single isomer, unassigned) [Compound 48A, (3R,7R)-2-(4-chloro-3-(trifluoromethyl)benzoyl)-9-((R*)-1-(2-isopropoxypyridin-4-yl)ethyl)-3,7-dimethyl-1,2,3,4,8,9-hexahydropyrido[4′,3′:3,4]pyrazolo [1,5-a]pyrazin-10(7H)-one] showed an EC50 in data set [1] (setting [4]) of 0.052 µM. Also, in data set [2], the half-maximal cytotoxic concentration (CC50) at 3 days came to 22.1 µM. Besides, the half-life at 1 μM in data set [3] was 2.22 h.

`C[C@@H]1Cc2nn3c(c2CN1C(=O)c1ccc(Cl)c(Cl)c1)C(=O)N([C@@H](C)c1ccc(C#N)cc1)CC3` [Ref 5, reference compound] had a CC50 at 3 days in data set [2] above 50 µM.

As to `C[C@@H]1Cc2nn3c(c2CN1C(=O)c1ccc(Cl)c(Cl)c1)C(=O)N([C@H](C)c1ccc(C#N)cc1)CC3` [Ref 4, reference compound], the half-maximal cytotoxic concentration (CC50) at 3 days in data set [2] was above 50 µM.
